Measurements: patent US8143243B2, “Compounds for the treatment of hepatitis C” (Bristol-Myers Squibb Company, priority 2007, dated 2012)
Read-outs that look alike come from different tables or passages of the source.

Biological target: T1, HCV NS5B (Hepatitis C virus genotype 1b, UniProt Q9WMX2)
T1 construct: The protein was expressed with an 18 amino acid C-terminal truncation to enhance the solubility; made in house; host or cells: E. coli BL21 (DE3)
Assay: HCV NS5B RdRp enzyme assay (standard / modified)
Type: biochemical
Experimental: HCV NS5B RdRp cloning, expression, and purification. The cDNA encoding the NS5B protein of HCV, genotype 1b, was cloned into the pET21a expression vector. The protein was expressed with an 18 amino acid C-terminal truncation to enhance the solubility. The E. coli competent cell line BL21 (DE3) was used for expression of the protein. Cultures were grown at 37° C. for ˜4 hours until the cultures reached an optical density of 2.0 at 600 nm. The cultures were cooled to 20° C. and induced with 1 mM IPTG. Fresh ampicillin was added to a final concentration of 50 μg/ml and the cells were grown overnight at 20° C.
Cell pellets (3 L) were lysed for purification to yield 15-24 mgs of purified NS5B. The lysis buffer consisted of 20 mM Tris-HCl, pH 7.4, 500 mM NaCl, 0.5% triton X-100, 1 mM DTT, 1 mM EDTA, 20% glycerol, 0.5 mg/ml lysozyme, 10 mM MgCl2, 15 ug/ml deoxyribonuclease I, and Complete TM protease inhibitor tablets (Roche). After addition of the lysis buffer, frozen cell pellets were resuspended using a tissue homogenizer. To reduce the viscosity of the sample, aliquots of the lysate were sonicated on ice using a microtip attached to a Branson sonicator. The sonicated lysate was centrifuged at 100,000×g for 1 hr at 4° C. and filtered through a 0.2 μm filter unit (Corning).
The protein was purified using three sequential chromatography steps: Heparin sepharose CL-6B, polyU sepharose 4B, and Hitrap SP sepharose (Pharmacia). The chromatography buffers were identical to the lysis buffer but contained no lysozyme, deoxyribonuclease I, MgCl2 or protease inhibitor and the NaCl concentration of the buffer was adjusted according to the requirements for charging the protein onto the column. Each column was eluted with a NaCl gradient which varied in length from 5-50 column volumes depending on the column type. After the final chromatography step, the resulting purity of the enzyme is >90% based on SDS-PAGE analysis. The enzyme was aliquoted and stored at −80° C.
Standard HCV NS5B RdRp enzyme assay. HCV RdRp genotype 1b assays were run in a final volume of 60 μl in 96 well plates (Costar 3912). The assay buffer is composed of 20 mM Hepes, pH 7.5, 2.5 mM KCl, 2.5 mM MgCl2, 1 mM DTT, 1.6 U RNAse inhibitor (Promega N2515), 0.1 mg/ml BSA (Promega R3961), and 2% glycerol. All compounds were serially diluted (3-fold) in DMSO and diluted further in water such that the final concentration of DMSO in the assay was 2%. HCV RdRp genotype 1b enzyme was used at a final concentration of 28 nM. A polyA template was used at 6 nM, and a biotinylated oligo-dT12 primer was used at 180 nM final concentration. Template was obtained commercially (Amersham 27-4110). Biotinylated primer was prepared by Sigma Genosys. 3H-UTP was used at 0.6 μCi (0.29 μM total UTP). Reactions were initiated by the addition of enzyme, incubated at 30° C. for 60 min, and stopped by adding 25 μl of 50 mM EDTA containing SPA beads (4 μg/μl, Amersham RPNQ 0007). Plates were read on a Packard Top Count NXT after >1 hr incubation at room temperature.
Modified HCV NS5B RdRp enzyme assay. A modified enzyme assay was performed essentially as described for the standard enzyme assay except for the following: The biotinylated oligo dT12 primer was precaptured on streptavidin-coated SPA beads by mixing primer and beads in assay buffer and incubating at room temperature for one hour. Unbound primer was removed after centrifugation. The primer-bound beads were resuspended in 20 mM Hepes buffer, pH 7.5 and used in the assay at final concentrations of 20 nM primer and 0.67 μg/μl beads. Order of addition in the assay: enzyme (14 nM) was added to diluted compound followed by the addition of a mixture of template (0.2 nM), 3H-UTP (0.6 μCi, 0.29 μM), and primer-bound beads, to initiate the reaction; concentrations given are final. Reactions were allowed to proceed for 4 hours at 30° C.
IC50 values for compounds were determined using seven different [I]. […]

[1] = HCV RdRp genotype 1b enzyme, read-out: IC50

T1 sequence (Q9WMX2 2420-2992): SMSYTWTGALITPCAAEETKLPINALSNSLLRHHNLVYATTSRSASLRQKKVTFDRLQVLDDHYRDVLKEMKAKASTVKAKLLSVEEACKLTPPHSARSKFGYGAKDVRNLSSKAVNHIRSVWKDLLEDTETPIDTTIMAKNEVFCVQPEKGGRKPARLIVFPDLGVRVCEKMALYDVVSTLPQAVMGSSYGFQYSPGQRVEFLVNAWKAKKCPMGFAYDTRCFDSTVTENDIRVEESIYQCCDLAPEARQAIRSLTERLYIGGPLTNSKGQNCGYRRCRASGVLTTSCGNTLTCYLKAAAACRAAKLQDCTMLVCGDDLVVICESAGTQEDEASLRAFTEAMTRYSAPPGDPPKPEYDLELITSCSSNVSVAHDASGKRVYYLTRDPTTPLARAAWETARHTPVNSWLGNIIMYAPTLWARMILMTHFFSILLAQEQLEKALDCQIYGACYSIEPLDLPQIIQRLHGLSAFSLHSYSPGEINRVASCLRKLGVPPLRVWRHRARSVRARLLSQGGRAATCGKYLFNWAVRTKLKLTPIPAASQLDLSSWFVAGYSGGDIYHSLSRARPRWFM

IC50 [1]	Structure (SMILES)	IC50
0.001 to 0.5 µM	COc1ccc2c(c1)C=C(c1c(C(=O)N3CCN4CCCC4C3)cnn1C)Cn1c-2c(C2CCCCC2)c2ccc(C(=O)NS(=O)(=O)C3CCCC3)cc21 (stereo not drawn)	–
0.001 to 0.5 µM	CCOC(=O)c1cnn(C)c1C1=Cc2cc(OC)ccc2-c2c(C3CCCCC3)c3ccc(C(=O)NS(=O)(=O)C4CCC4)cc3n2C1	–
0.001 to 0.5 µM	COc1ccc2c(c1)C=C(c1c(C(=O)N3CCCC(N(C)C)C3)cnn1C)Cn1c-2c(C2CCCCC2)c2ccc(C(=O)NS(=O)(=O)C3CCCC3)cc21 (stereo not drawn)	–
0.001 to 0.5 µM	COc1ccc2c(c1)C=C(c1c(C(=O)N3C[C@@H](C)N(C)[C@@H](C)C3)cnn1C)Cn1c-2c(C2CCCCC2)c2ccc(C(=O)NS(=O)(=O)C3CCCC3)cc21	–
0.001 to 0.5 µM	CCOC(=O)c1cnn(C)c1C1=Cc2cc(OC)ccc2-c2c(C3CCCCC3)c3ccc(C(=O)NS(=O)(=O)CC(C)C)cc3n2C1	–
0.001 to 0.5 µM	COc1ccc2c(c1)C=C(c1c(C(=O)N3C[C@@H](C)O[C@@H](C)C3)cnn1C)Cn1c-2c(C2CCCCC2)c2ccc(C(=O)NS(=O)(=O)C3CCCC3)cc21	–
0.001 to 0.5 µM	COC(=O)c1c(C)nn(C)c1C1=Cc2cc(OC)ccc2-c2c(C3CCCCC3)c3ccc(C(=O)NS(=O)(=O)CC(C)C)cc3n2C1	–
0.001 to 0.5 µM	COc1ccc2c(c1)C=C(c1c(C(=O)N3C[C@@H](C)O[C@@H](C)C3)cnn1C)Cn1c-2c(C2CCCCC2)c2ccc(C(=O)NS(=O)(=O)C3CCC3)cc21	–
0.001 to 0.5 µM	CCn1nc(C)c(C(=O)N2CCO[C@H](COC)C2)c1C1=Cc2cc(OC)ccc2-c2c(C3CCCCC3)c3ccc(C(=O)NS(=O)(=O)C(C)C)cc3n2C1	–
–	COc1ccc2c(c1)C=C(c1c(C(=O)N3[C@H]4CC[C@@H]3CC4)cnn1C)Cn1c-2c(C2CCCCC2)c2ccc(C(=O)NS(=O)(=O)C(C)C)cc21	0.001 to 0.5 µM
0.001 to 0.5 µM	COc1ccc2c(c1)C=C(c1c(C(=O)N3C[C@@H](C)N(C)[C@@H](C)C3)cnn1C)Cn1c-2c(C2CCCCC2)c2ccc(C(=O)NS(=O)(=O)C3CCC3)cc21	–
0.001 to 0.5 µM	COc1ccc2c(c1)C=C(c1c(C(=O)N(Cc3ccccc3OC)C(C)C)cnn1C)Cn1c-2c(C2CCCCC2)c2ccc(C(=O)NS(=O)(=O)C(C)C)cc21	–
0.001 to 0.5 µM	COC(=O)c1c(C)nn(C)c1C1=Cc2cc(OC)ccc2-c2c(C3CCCCC3)c3ccc(C(=O)NS(=O)(=O)N(C)C)cc3n2C1	–
0.001 to 0.5 µM	CCN1CC2CC1CN2C(=O)c1cnn(C)c1C1=Cc2cc(OC)ccc2-c2c(C3CCCCC3)c3ccc(C(=O)NS(=O)(=O)CC(C)C)cc3n2C1 (stereo not drawn)	–
0.001 to 0.5 µM	COc1ccc2c(c1)C=C(c1c(C(=O)O)cnn1C)Cn1c-2c(C2CCCCC2)c2ccc(C(=O)NS(=O)(=O)C3CCC3)cc21	–
0.001 to 0.5 µM	CCOC(=O)c1cnn(C)c1C1=Cc2cc(OC)ccc2-c2c(C3CCCCC3)c3ccc(C(=O)NS(=O)(=O)C(C)CC)cc3n2C1 (stereo not drawn)	–
0.001 to 0.5 µM	CCC(C)S(=O)(=O)NC(=O)c1ccc2c(C3CCCCC3)c3n(c2c1)CC(c1c(C(=O)N2CCN4CCCC4C2)cnn1C)=Cc1cc(OC)ccc1-3 (stereo not drawn)	–
0.001 to 0.5 µM	COc1ccc2c(c1)C=C(c1c(C(=O)N3CCCC(N(C)C)C3)cnn1C)Cn1c-2c(C2CCCCC2)c2ccc(C(=O)NS(=O)(=O)CC(C)C)cc21 (stereo not drawn)	–
0.001 to 0.5 µM	CCN(C(=O)c1cnn(C)c1C1=Cc2cc(OC)ccc2-c2c(C3CCCCC3)c3ccc(C(=O)NS(=O)(=O)C4CCCC4)cc3n2C1)C(C)C	–
0.001 to 0.5 µM	CCN1C[C@@H]2C[C@H]1CN2C(=O)c1cnn(C)c1C1=Cc2cc(OC)ccc2-c2c(C3CCCCC3)c3ccc(C(=O)NS(=O)(=O)C4CCCC4)cc3n2C1	–
0.001 to 0.5 µM	CCc1nnc(CN(C(=O)c2cnn(C)c2C2=Cc3cc(OC)ccc3-c3c(C4CCCCC4)c4ccc(C(=O)NS(=O)(=O)C(C)C)cc4n3C2)C(C)C)o1	–
0.001 to 0.5 µM	COc1ccc2c(c1)C=C(c1c(C(=O)N3C[C@@H](C)N(C)[C@@H](C)C3)cnn1C)Cn1c-2c(C2CCCCC2)c2ccc(C(=O)NS(=O)(=O)CC(C)C)cc21	–
0.001 to 0.5 µM	CCn1nc(C)c(C(=O)N2C[C@@H](C)N(C)[C@@H](C)C2)c1C1=Cc2cc(OC)ccc2-c2c(C3CCCCC3)c3ccc(C(=O)NS(=O)(=O)C(C)C)cc3n2C1	–
0.001 to 0.5 µM	COc1ccc2c(c1)C=C(c1nn(C(C)C)c(C)c1C(=O)N1C[C@@H](C)O[C@@H](C)C1)Cn1c-2c(C2CCCCC2)c2ccc(C(=O)NS(=O)(=O)C(C)C)cc21 [drawing 622]	–
0.001 to 0.5 µM	COc1ccc2c(c1)C=C(c1nn(C(C)C)c(C)c1C(=O)N1C[C@@H](C)O[C@@H](C)C1)Cn1c-2c(C2CCCCC2)c2ccc(C(=O)NS(=O)(=O)C(C)C)cc21 [drawing 617]	–
0.001 to 0.5 µM	CCC(C)S(=O)(=O)NC(=O)c1ccc2c(C3CCCCC3)c3n(c2c1)CC(c1c(C(=O)N2C[C@@H]4C[C@H]2CN4CC)cnn1C)=Cc1cc(OC)ccc1-3 (stereo partly drawn)	–
0.001 to 0.5 µM	COc1ccc2c(c1)C=C(c1c(C(=O)N3CCN4CCCC4C3)cnn1C)Cn1c-2c(C2CCCCC2)c2ccc(C(=O)NS(=O)(=O)CC(C)C)cc21 (stereo not drawn)	–
0.001 to 0.5 µM	COc1ccc2c(c1)C=C(c1c(C(=O)O)cnn1C)Cn1c-2c(C2CCCCC2)c2ccc(C(=O)NS(=O)(=O)C(C)C)cc21	–

Structure (SMILES)	IC50 [1]	IC50
CCn1ncc(C(=O)N2CC3CCC(C2)O3)c1C1=Cc2cc(OC)ccc2-c2c(C3CCCCC3)c3ccc(C(=O)NS(=O)(=O)C(C)C)cc3n2C1	0.001 to 0.5 µM	–
COc1ccc2c(c1)C=C(c1c(C(=O)N3CC4CCC(C3)O4)c(C)nn1C(C)C)Cn1c-2c(C2CCCCC2)c2ccc(C(=O)NS(=O)(=O)C(C)C)cc21	0.001 to 0.5 µM	–
